Results published in ChEMBL document CHEMBL1275255, “Role of Fks1p and matrix glucan in Candida albicans biofilm resistance to an echinocandin, pyrimidine, and polyene” (2010).
In brackets after ≈: the same amount, converted by molar mass. Starred links: 1 amine or outer side, 2 acyl side, 3 side chain; linkers in the order of their positions; H or OH if unused. Positions of bridges follow the written chain, without caps; N, C: chain ends. Non-standard residues stand in square brackets, D forms with d. Residues, ends and D or L forms follow the SMILES beside them. *: point of attachment. pTerphenylCO(4''-OnC5H11) = CCCCCOc1ccc(-c2ccc(-c3ccc(C(=O)*)cc3)cc2)cc1; Orn(4R-OH,5R-OH) = O=C([C@H](C[C@@H](O)[C@@H](O)N[*:3])N[*:1])[*:2]; hTyr(3S-OH,4S-OH) = N[C@H](C(=O)O)[C@H](O)[C@@H](O)c1ccc(O)cc1; Pro(3S-OH,4S-Me) = C[C@H]1CN[C@H](C(=O)O)[C@H]1O; Hyp = O=C(O)[C@@H]1C[C@@H](O)CN1

Tests used:
Type in all cases: functional
Candida albicans [1] = assay: Antifungal activity against Candida albicans grown as planktonic cell after 24 hrs by XTT reduction assay
Candida albicans [2] = assay: Antifungal activity against […] gene deficient Candida albicans
Candida albicans [3] = assay: Antifungal activity against Candida albicans TDH3 overexpressing FKS1 gene
Candida albicans [4] = assay: Antifungal activity against […] gene deficient Candida albicans assessed as decrease in biofilm formation at 0.25 ug/ml; design: scale not given: the % may be the effect or the level left
Candida albicans [5] = assay: Antifungal activity against Candida albicans assessed as decrease in biofilm formation at 0.25 ug/ml; design: scale not given: the % may be the effect or the level left

SMILES	MIC (Candida albicans [1]) [µg/mL]	MIC (Candida albicans [2]) [µg/mL]	MIC (Candida albicans [3]) [µg/mL]	Activity (Candida albicans [4]) [%]	Activity (Candida albicans [5]) [%]
CCCCCOc1ccc(-c2ccc(-c3ccc(C(=O)N[C@H]4C[C@@H](O)[C@@H](O)NC(=O)[C@@H]5[C@@H](O)[C@@H](C)CN5C(=O)[C@H]([C@@H](C)O)NC(=O)[C@H]([C@H](O)[C@@H](O)c5ccc(O)cc5)NC(=O)[C@@H]5C[C@@H](O)CN5C(=O)[C@H]([C@@H](C)O)NC4=O)cc3)cc2)cc1 [ANIDULAFUNGIN] ({pTerphenylCO(4''-OnC5H11)}-[Orn(4R-OH,5R-OH)]T[Hyp][hTyr(3S-OH,4S-OH)]T[Pro(3S-OH,4S-Me)]; lactam 1-C)	0.01 (≈ 0.00877 µM)	0.01 (≈ 0.00877 µM)	0.01 (≈ 0.00877 µM)	–	–
C[C@@H]1[C@H](O)[C@@H](C)/C=C/C=C/C=C/C=C/C=C/C=C/C=C/[C@H](O[C@@H]2O[C@H](C)[C@@H](O)[C@H](N)[C@@H]2O)C[C@@H]2O[C@](O)(C[C@@H](O)C[C@@H](O)[C@H](O)CC[C@@H](O)C[C@@H](O)CC(=O)O[C@H]1C)C[C@H](O)[C@H]2C(=O)O [AMPHOTERICIN B]	–	–	–	80	60
Nc1nc(=O)[nH]cc1F [FLUCYTOSINE]	0.03 (≈ 0.232 µM)	0.03 (≈ 0.232 µM)	0.03 (≈ 0.232 µM)	–	–
